# Test results published in patent US20250073210A1, “Use of Ergothioneine for Enhancing Glutathione Level” (priority 2022, published 2025).
# How the values were obtained:
# [1] = tested on: total GSH; assay: Example 2: oral L-ergothioneine on plasma glutathione in healthy humans; format: in vivo, human; conditions: Example 2, 200 mg orally once daily, single subject
# [2] = tested on: total GSH; assay: Example 3: oral L-ergothioneine 5, 15, 30 mg/day on plasma glutathione in healthy humans; format: in vivo, human
# Text: A Baseline will be established looking at Total and Percent Reduced Glutathione. These same values will be measured at the end of the four weeks. Subjects will be contacted once a week while in the study for an assessment of compliance with intervention.
# Study Population: Male and female subjects 25-75 years of age Number of Subjects: 5, assigned as follows: 1 subject will receive the GSH administered orally once weekly for 4 weeks; 1 subject will receive S-acetyl-glutathione supplemented orally once daily for 4 weeks; 3 subjects will receive 5, 15, 30 mg L-ergothioneine supplemented orally once daily for 4 weeks, respectively.
# • 1. Individuals must be between 25-70 years of age with no known medical conditions that, in the investigator's opinion, may interfere with study participation. • 2. Subjects must present with mild to moderate signs oxidative stress or inflammation. • 3. Willingness to cooperate and participate by following Study requirements. • 4. Individuals must sign informed consent, photo release consent and confidentiality agreement.
# • 1. […] Individuals currently taking certain medications or any dietary supplements, which in the opinion of the investigator might interfere with the study. This would include but not be limited to routine high dosage use of anti-inflammatory drugs (aspirin, ibuprofen, corticosteroids) immunosuppressive drugs or antihistamine medications), and insulin, anti-hypertensive drugs, and especially antioxidants. • 3. Individuals with uncontrolled metabolic diseases such as diabetes (Type I and II), hypertension, hyperthyroidism or hypothyroidism, severe chronic asthma, immunological disorders such as HIV positive, AIDS and systemic lupus erythematosus or mastectomy for cancer involving removal of lymph nodes. • 4. Women known to be pregnant, nursing or planning to become pregnant. • 5. Individuals participating in other clinical studies evaluating antioxidants or anti-inflammatory interventions.
# [3] = tested on: body stores of glutathione; conditions: oral 250 or 1000 mg/day, cited from earlier work
SMILES,% change from baseline in total GSH [1],Total GSH at Day 30 ([1]; baseline 727 μM),"Total GSH at Day 30 ([2]; Example 3, 200 mg orally once daily, single subject, baseline 733 μM)","Total GSH at Day 30 ([2]; Example 3, second sentence on a single subject with comparator intervention (see doubts))","% change from baseline in total GSH ([2]; Example 3, single subject)","% change from baseline in total GSH ([2]; Example 3, 1400 mg orally once weekly for 4 weeks, single subject, baseline 653 μM)",Natural killer cell cytotoxicity ([3]; at six months),Oxidized (GSSG) to reduced (GSH) glutathione ratio in whole blood ([3]; at six months),"Body stores of glutathione ([3]; six months, 54 non-smoking adults)"
"CC(=O)SC[C@H](NC(=O)CC[C@H](N)C(=O)O)C(=O)NCC(=O)O [SAG, S-acetyl-glutathione]",−25%,547 µM,461 µM,503 µM,−37%,,,,
N[C@@H](CCC(=O)N[C@@H](CS)C(=O)NCC(=O)O)C(=O)O [glutathione],,,,,,−23%,favorable increases,improvement,significant increases
